In the case of `O=C(NCc1ncc(Cl)cc1Cl)c1c(Cl)cccc1Cl` [Compound 59, N-[(3,5-dichloro-2-pyridyl)methyl]-2,6-dichlorobenzamide], the melting point is 161 to 165 °C.

As for `CCOC(=O)C(NC(=O)c1ccc(OC)c(OC)c1)c1ncc(CF)cc1Cl` (centres unmarked), the melting point was in the range of 40 to 43 °C.

`O=C(NC(Cc1ccccc1)c1ncc(C(F)(F)F)cc1Cl)c1c(Cl)cccc1Cl` (centres unmarked) had a melting point of 164 to 168 °C.

In the case of `FC(F)(F)c1cnc(CNC(=S)c2ccccc2Cl)c(Cl)c1` [Compound 701, N-[(3-Chloro-5-trifluoromethyl-2-pyridyl)methyl]-2-chlorobenzenethioamide], the melting point was in the range of 102 to 105 °C.

Regarding `CN(Cc1ncc(C(F)(F)F)cc1Cl)C(=O)c1c(Cl)cccc1Cl` [Compound 63, N-[(3-Chloro-5-trifluoromethyl-2-pyridyl)methyl]-N-methyl-2,6-dichlorobenzamide], the melting point was 83 to 84 °C.

The melting point is the temperature of the solid-liquid transition.
